Results reported in article PMC7052197 (Scientific Reports, 2020).
Ends that are not written are not given here.

Columns and labels:
αBgt = αBgt (Bungarus multicinctus, UniProt P60615); experiment: biochemical; type: binding
αCtx = αCtx (Naja kaouthia, UniProt P01391); experiment: biochemical; type: binding
Sequence of αCtx (P01391 whole entry, looked up): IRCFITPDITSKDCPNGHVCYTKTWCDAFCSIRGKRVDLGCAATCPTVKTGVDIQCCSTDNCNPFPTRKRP

Sequence of αBgt (P60615 22-95 limits assumed): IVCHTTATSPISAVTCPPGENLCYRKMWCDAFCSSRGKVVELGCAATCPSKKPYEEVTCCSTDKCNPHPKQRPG

| Sequence | Kd (αBgt) [nM] | Kd (αCtx) [nM] |
| --- | --- | --- |
| WRYYESSLEPYPD [HAP[L9E]] | 91 ± 33 | 7000 ± 1000 |
| WRYYESSLLPYPD [HAP] | 29 ± 8 | > 10000 |
